The values below come from patent publication US12435060B2, “Acylamino bridged heterocyclic compound, and composition and application thereof” (BEIJING SCITECH-MQ PHARMACEUTICALS LIMITED, priority 2019, dated 2025).

The test system of this assay is HT29 cells. In words: Inhibition of cell necrosis (CCK8 method), induced programmed necrosis of HT29 cells. It is filed as cell-based. To be noted: Homo sapiens, HT-29; rescue from necrosis induced by TNF-α 20 ng/mL, AT-406 1 μM, Z-VAD-FMK 20 μM; 16-20 hours; CCK-8, OD 450 nm. In short, it runs like this: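 Rescue from programmed necrosis was scored by CCK-8 absorbance at 450 nm after 16-20 h of TNF-α (20 ng/mL), AT-406 (1 μM) and Z-VAD-FMK (20 μM) at 37 °C, 5% CO2. HT29 cells had received compound 30 min earlier across nine 4-fold dilutions (top 25000 nM final). IC50 came from % inhibition relative to uninduced and induced-only wells.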
As usually defined, the IC50 is the concentration at which inhibition is half-maximal. Read a high IC50 as a need for much substance. For the molecule `COCCOc1ccc(Cl)c(-c2ccnc(NC(=O)c3nnc(Cc4ccccc4F)[nH]3)c2)c1` [Example 380, 5-(2-fluorobenzyl)-N-(4-(2-chloro-5-(2-methoxyethoxy)phenyl)pyridin-2-yl)-4H-1,2,4-triazole-3-carboxamide], the IC50 is no more than 100 nM. For `Cc1ccc(NC(=O)CCC(C)(C)O)cc1-c1ccnc(NC(=O)c2nnc(Cc3ccccc3)[nH]2)c1` [Example 489, 5-benzyl-N-(4-(5-(4-hydroxy-4-methylvaleramido)-2-methylphenyl)pyridin-2-yl)-4H-1,2,4-triazole-3-carboxamide], the concentration for half-maximal inhibition (IC50) lay within 100 to 1000 nM. With `CC(C)(O)CCCOc1ccc(Cl)c(-c2ccnc(NC(=O)c3nnc(C(O)c4ccccc4F)[nH]3)c2)c1` (stereo not shown) [Example 476, N-(4-(2-chloro-5-((4-hydroxy-4-methylpentyl)oxy)phenyl)pyridin-2-yl)-5-((2-fluorophenyl)(hydroxyl)methyl)-4H-1,2,4-triazole-3-carboxamide], the IC50 was in the range of 100 to 1000 nM. Molecule `O=C(Nc1cc(-c2cc(OCCC3CCOCC3)ccc2C(F)(F)F)ccn1)c1nnc(CC2CCCC2)[nH]1` [Example 309, 5-(cyclopentylmethyl)-N-(4-(5-(2-(tetrahydro-2H-pyran-4-yl)ethoxy)-2-(trifluoromethyl)phenyl)pyridin-2-yl)-4H-1,2,4-triazole-3-carboxamide] showed an IC50 of no more than 100 nM. In turn, `COc1ccc(F)cc1-c1ccnc(NC(=O)c2nnc(Cc3ccccc3)[nH]2)c1` [Example 14, 5-benzyl-N-(4-(5-fluoro-2-methoxyphenyl)pyridin-2-yl)-4H-1,2,4-triazole-3-carboxamide] displayed an IC50 of 1000 to 10000 nM. As to `Cc1ccc(OCCCOC(C)C)cc1-c1ccnc(NC(=O)c2nnc(Cc3ccccc3)[nH]2)c1` [Example 83, 5-benzyl-N-(4-(5-(3-isopropoxypropoxy)-2-methylphenyl)pyridin-2-yl)-4H-1,2,4-triazole-3-carboxamide], the IC50 is no more than 100 nM.

Consider `Cc1ccc(OCCCC(C)(C)O)cc1-c1ccnc(NC(=O)c2nnc(CC(C)(C)C)[nH]2)c1` [Example 170, N-(4-(5-((4-hydroxy-4-methylpentyl)oxy)-2-methylphenyl)pyridin-2-yl)-5-neopentyl-4H-1,2,4-triazole-3-carboxamide], for which the IC50 was 100 to 1000 nM. In the case of `Cc1ccc(OCCCN2CCCCC2=O)cc1-c1ccnc(NC(=O)c2nnc(Cc3ccccc3)[nH]2)c1` [Example 84] it was no more than 100 nM; in that of `Cc1ccc(OCCCOC2CCC2)cc1-c1ccnc(NC(=O)c2nnc(Cc3ccccc3)[nH]2)c1` [Example 81, 5-benzyl-N-(4-(5-(3-cyclobutoxypropoxy)-2-methylphenyl)pyridin-2-yl)-4H-1,2,4-triazole-3-carboxamide], no more than 100 nM; in that of `CSCCCCOc1ccc(C)c(-c2ccnc(NC(=O)c3nnc(Cc4ccccc4)[nH]3)c2)c1` [Example 150, 5-benzyl-N-(4-(2-methyl-5-(4-(methylthio)butoxy)phenyl)pyridin-2-yl)-4H-1,2,4-triazole-3-carboxamide], no more than 100 nM.

In turn, `Cc1ccc(OC2CCC2)cc1-c1ccnc(NC(=O)c2nnc(Cc3ccccc3)[nH]2)c1` [Example 156, 5-benzyl-N-(4-(5-cyclobutoxy-2-methylphenyl)pyridin-2-yl)-4H-1,2,4-triazole-3-carboxamide] registered a half-maximal inhibitory concentration (IC50) of 100 to 1000 nM.

Take `Cc1ccc(OCCCC(C)(C)O)cc1-c1cc(NC(=O)c2nnc(CC3CCCCC3)[nH]2)ncn1` [Example 440, 5-(cyclohexylmethyl)-N-(6-(5-((4-hydroxy-4-methylpentyl)oxy)-2-methylphenyl)pyrimidin-4-yl)-4H-1,2,4-triazole-3-carboxamide]: the half-inhibitory concentration (IC50) was no more than 100 nM.

For the molecule `CC(C)Oc1ccc(Cl)c(-c2ccnc(NC(=O)c3nnc(Cc4ccccc4)[nH]3)c2)c1` [Example 111, 5-benzyl-N-(4-(2-chloro-5-isopropoxyphenyl)pyridin-2-yl)-4H-1,2,4-triazole-3-carboxamide], the IC50 is no more than 100 nM. The molecule `Cc1ccc(OCCCCCCCCO)cc1-c1ccnc(NC(=O)c2nnc(Cc3ccccc3)[nH]2)c1` [Example 154, 5-benzyl-N-(4-(5-((8-hydroxyoctyl)oxy)-2-methylphenyl)pyridin-2-yl)-4H-1,2,4-triazole-3-carboxamide] displayed a 50% inhibitory concentration (IC50) of no more than 100 nM. In turn, `Cc1c(F)cc(OCCCC(C)(C)O)cc1-c1ccnc(NC(=O)c2nnc(Cc3ccccc3F)[nH]2)c1` [Example 236, 5-(2-fluorobenzyl)-N-(4-(3-fluoro-5-((4-hydroxy-4-methylpentyl)oxy)-2-methylphenyl)pyridin-2-yl)-4H-1,2,4-triazole-3-carboxamide] had an IC50 of no more than 100 nM. In the case of `O=C(Nc1cc(-c2cc(OCC3CCOCC3)ccc2Cl)ccn1)c1nnc(CC2CCCCC2)[nH]1` [Example 402, N-(4-(2-chloro-5-((tetrahydro-2H-pyran-4-yl)methoxy)phenyl)pyridin-2-yl)-5-(cyclohexylmethyl)-4H-1,2,4-triazole-3-carboxamide] it was no more than 100 nM; in that of `CC(C)(O)CCCOc1ccc(Cl)c(-c2ccnc(NC(=O)c3nnc(Cc4ccc(F)c(F)c4F)[nH]3)c2)c1` [Example 351, N-(4-(2-chloro-5-((4-hydroxy-4-methylpentyl)oxy)phenyl)pyridin-2-yl)-5-(2,3,4-trifluorobenzyl)-4H-1,2,4-triazole-3-carboxamide], 100 to 1000 nM. In the case of `CCOc1ccc(C)nc1-c1ccnc(NC(=O)c2nnc(Cc3ccccc3)[nH]2)c1` [Example 62, 5-benzyl-N-(3-ethoxy-6-methyl-[2,4′-bipyridin]-2′-yl)-4H-1,2,4-triazole-3-carboxamide], the IC50 was greater than 10000 nM.

`Cc1ccc(C(F)(F)F)cc1-c1ccnc(NC(=O)c2nnc(Cc3ccccc3)[nH]2)c1` [Example 36, 5-benzyl-N-(4-(2-methyl-5-(trifluoromethyl)phenyl)pyridin-2-yl)-4H-1,2,4-triazole-3-carboxamide] registered an IC50 of 100 to 1000 nM. On to `CC(C)(C)OCCOc1ccc(Cl)c(-c2ccnc(NC(=O)c3nnc(CC4CCCCC4)[nH]3)c2)c1` [Example 394, N-(4-(5-(2-(tert-butoxy)ethoxy)-2-chlorophenyl)pyridin-2-yl)-5-(cyclohexylmethyl)-4H-1,2,4-triazole-3-carboxamide], for which the IC50 is no more than 100 nM. On to `CCC(O)(CC)CCCOc1ccc(F)c(-c2cc(NC(=O)c3nnc(CC4CCCCC4)[nH]3)ncc2Cl)c1` [Example 324, 5-(cyclohexylmethyl)-N-(5-chloro-4-(5-((4-ethyl-4-hydroxyhexyl)oxy)-2-fluorophenyl)pyridin-2-yl)-4H-1,2,4-triazole-3-carboxamide], for which the IC50 lay within 100 to 1000 nM. On to `CC(C)(O)CCCOc1ccc(Cl)c(-c2ccnc(NC(=O)c3nnc([C@H](O)c4ccccc4)[nH]3)c2)c1` [Example 477, (R)-N-(4-(2-chloro-5-((4-hydroxy-4-methylpentyl)oxy)phenyl)pyridin-2-yl)-5-(hydroxyl(phenyl)methyl)-4H-1,2,4-triazole-3-carboxamide], for which the half-inhibitory concentration (IC50) lay in the range of 1000 to 10000 nM. Take `Cn1nc(C(F)(F)F)cc1-c1ccnc(NC(=O)c2nnc(Cc3ccccc3)[nH]2)c1` [Example 28, 5-benzyl-N-(4-(1-methyl-3-(trifluoromethyl)-1H-pyrazol-5-yl)pyridin-2-yl)-4H-1,2,4-triazole-3-carboxamide]: the IC50 lay in the range of 1000 to 10000 nM. With `O=C(Nc1cc(-c2cc(OCCCCCO)ccc2Cl)ccn1)c1nnc(CC2CCCC2)[nH]1` [Example 377, N-(4-(2-chloro-5-((5-hydroxypentyl)oxy)phenyl)pyridin-2-yl)-5-(cyclopentylmethyl)-4H-1,2,4-triazole-3-carboxamide], the IC50 is no more than 100 nM. The molecule `CCC(O)(CC)CCCOc1ccc(C)c(-c2cc(NC(=O)c3nnc(CC4CCCCC4)[nH]3)ncc2C)c1` [Example 246, 5-(cyclohexylmethyl)-N-(4-(5-((4-ethyl-4-hydroxyhexyl)oxy)-2-methylphenyl)-5-methylpyridin-2-yl)-4H-1,2,4-triazole-3-carboxamide] yielded a concentration for half-maximal inhibition (IC50) of 100 to 1000 nM. Take `Cc1ccc(Cl)cc1-c1ccnc(NC(=O)c2nnc(Cc3ccccc3)[nH]2)c1` [Example 34, 5-benzyl-N-(4-(5-chloro-2-methylphenyl)pyridin-2-yl)-4H-1,2,4-triazole-3-carboxamide]: the IC50 is 100 to 1000 nM. For `Cc1ccc(OCCCC(C)(C)O)cc1-c1ccnc(NC(=O)c2nnc(Cc3cc(F)cc(C(F)(F)F)c3)[nH]2)c1` [Example 213, 5-(3-fluoro-5-trifluoromethylbenzyl)-N-(4-(5-((4-hydroxy-4-methylpentyl)oxy)-2-methylphenyl)pyridin-2-yl)-4H-1,2,4-triazole-3-carboxamide] the value was 1000 to 10000 nM. For `O=C(Nc1cc(-c2cc(OCCC3CCOCC3)ccc2C(F)(F)F)ncn1)c1nnc(CC2CCCC2)[nH]1` [Example 460, 5-(cyclopentylmethyl)-N-(6-(5-(2-(tetrahydro-2H-pyran-4-yl)ethoxy)-2-(trifluoromethyl)phenyl)pyrimidin-4-yl)-4H-1,2,4-triazole-3-carboxamide] the value was no more than 100 nM; for `Cc1ccc(OCCC2CCOCC2)cc1-c1cc(NC(=O)c2nnc(CC3CCCCC3)[nH]2)ncc1C` [Example 254, 5-(cyclohexylmethyl)-N-(5-methyl-4-(2-methyl-5-(2-(tetrahydro-2H-pyran-4-yl)ethoxy)phenyl)pyridin-2-yl)-4H-1,2,4-triazole-3-carboxamide], 100 to 1000 nM. Take `CC(C)(O)COc1ccc(C(F)(F)F)c(-c2ccnc(NC(=O)c3nnc(CC4CCCCC4)[nH]3)c2)c1` [Example 267, 5-(cyclohexylmethyl)-N-(4-(5-(2-hydroxyl-2-methylpropoxy)-2-(trifluoromethyl)phenyl)pyridin-2-yl)-4H-1,2,4-triazole-3-carboxamide]: the IC50 is no more than 100 nM.

As to `Cc1ccc(OCCN(C)C)cc1-c1ccnc(NC(=O)c2nnc(Cc3ccccc3)[nH]2)c1` [Example 134, 5-benzyl-N-(4-(5-(2-(dimethylamino)ethoxy)-2-methylphenyl)pyridin-2-yl)-4H-1,2,4-triazole-3-carboxamide], the IC50 lay within 100 to 1000 nM.
